Measured values published in patent US5159077A, “Penam antibacterial compounds” (Hoffmann-La Roche Inc., priority 1989, dated 1992).
Converted amounts (≈) assume the structure as drawn. Where a name gives a salt, the structure may show the parent alone. Read-outs that look alike come from different tables or passages of the source.

Assays:
Serratia marcescens SM [1] = assay: In vitro MIC, Agar Well Diffusion Method; format: cell-based; conditions: Agar Well Diffusion Method; Serratia marcescens SM; read-out: In Vitro MIC
Description: (§1) In vitro antimicrobial activity was determined in BBL seed agar. Serial dilutions of the test compound were pipetted into agar wells (80 μL per well). […] For reference, see A. H. Litton, Antibiotics: Assessment of Antimicrobial Activity and Resistance, Academic Press, New York, pages 19-30 (1983).

[2] = system: Enterobacter cloacae 2952B; assay: In vitro MIC, Agar Well Diffusion Method; format: cell-based; conditions: Agar Well Diffusion Method; Enterobacter cloacae 2952B; read-out: In Vitro MIC
Description: as §1

[3] = system: Streptococcus faecium ATCC 8043; assay: In vitro MIC, Agar Well Diffusion Method; format: cell-based; conditions: Enterococcus faecium, ATCC8043; Agar Well Diffusion Method; Streptococcus faecium ATCC 8043; read-out: In Vitro MIC
Description: as §1

Proteus vulgaris 101N = assay: In vitro MIC, Agar Well Diffusion Method; format: cell-based; conditions: Agar Well Diffusion Method; Proteus vulgaris 101N; read-out: In Vitro MIC
Description: as §1

Pseudomonas aeruginosa B = assay: In vitro MIC, Agar Well Diffusion Method; format: cell-based; conditions: Agar Well Diffusion Method; Pseudomonas aeruginosa B; read-out: In Vitro MIC
Description: as §1

[4] = system: Pseudomonas aeruginosa 56; assay: In vitro MIC, Agar Well Diffusion Method; format: cell-based; conditions: Agar Well Diffusion Method; Pseudomonas aeruginosa 56; read-out: In Vitro MIC
Description: as §1

Escherichia coli 1269B = assay: In vitro MIC, Agar Well Diffusion Method; format: cell-based; conditions: Agar Well Diffusion Method; Escherichia coli 1269B; read-out: In Vitro MIC
Description: as §1

[5] = system: Klebsiella pneumoniae 369; assay: In vitro MIC, Agar Well Diffusion Method; format: cell-based; conditions: Agar Well Diffusion Method; Klebsiella pneumoniae 369; read-out: In Vitro MIC
Description: as §1

Micrococcus luteus PCl = assay: In vitro MIC, Agar Well Diffusion Method; format: cell-based; conditions: Agar Well Diffusion Method; Micrococcus luteus PCl; read-out: In Vitro MIC
Description: as §1

[6] = system: Streptococcus faecalis ATCC 29212; assay: In vitro MIC, Broth Dilution Method; format: cell-based; conditions: Enterococcus faecalis, ATCC29212; Broth Dilution Method; Streptococcus faecalis ATCC 29212; read-out: In Vitro MIC
Description: (§2) The diluted agents prepared in Mueller-Hinton broth were dispensed from a Dynatech MIC 2000 machine, in 100 microliter (μL) volumes into 96 well trays and used immediately or frozen at -10° to -70° C. until needed. Using a Dynatech inoculator and inoculum trays, 1.5 μL of a 10^-2 dilution of an overnight culture was added to each well of the tray. The tops of the trays were then sealed with tape, and the trays were incubated overnight at 37° C. and then examined with a viewer. The lowest concentration at which no growth was observed was considered to be the minimum inhibitory concentration (MIC).

Proteus mirabilis 2 = assay: In vitro MIC, Broth Dilution Method; format: cell-based
Description: as §2

[7] = system: Streptococcus pneumoniae 6301; assay: In vitro MIC, Broth Dilution Method; format: cell-based
Description: as §2

Serratia marcescens SM [8] = assay: In vitro MIC, Broth Dilution Method; format: cell-based; conditions: Broth Dilution Method; Serratia marcescens SM; read-out: In Vitro MIC
Description: as §2

[9] = system: Proteus vulgaris ATCC 6380; assay: In vitro MIC, Broth Dilution Method; format: cell-based; conditions: Proteus vulgaris, ATCC6380, read-out: In Vitro MIC
Description: as §2

Escherichia coli 4 = assay: In vitro MIC, Broth Dilution Method; format: cell-based
Description: as §2

Enterobacter cloacae P99 = assay: In vitro MIC, Broth Dilution Method; format: cell-based; conditions: P99, read-out: In Vitro MIC
Description: as §2

[10] = system: Staphylococcus aureus Smith; assay: In vitro MIC, Broth Dilution Method; format: cell-based; conditions: Broth Dilution Method; Staphylococcus aureus Smith; read-out: In Vitro MIC
Description: as §2

Klebsiella pneumoniae A = assay: In vitro MIC, Broth Dilution Method; format: cell-based; conditions: Broth Dilution Method; Klebsiella pneumoniae A; read-out: In Vitro MIC
Description: as §2

Proteus mirabilis 90 = assay: In vitro MIC, Broth Dilution Method; format: cell-based
Description: as §2

[11] = system: Citrobacter freundii BS-16; assay: In vitro MIC, Broth Dilution Method; format: cell-based; conditions: BS16; Broth Dilution Method; Citrobacter freundii BS-16; read-out: In Vitro MIC
Description: as §2

[12] = system: Enterobacter cloacae 5699; assay: In vitro MIC, Broth Dilution Method; format: cell-based
Description: as §2

[13] = system: Pseudomonas aeruginosa ATCC 27853; assay: In vitro MIC, Broth Dilution Method; format: cell-based; conditions: ATCC27853; Broth Dilution Method; Pseudomonas aeruginosa ATCC 27853; read-out: In Vitro MIC
Description: as §2

Escherichia coli TEM-1 = assay: In vitro MIC, Broth Dilution Method; format: cell-based; conditions: TEM1, read-out: In Vitro MIC
Description: as §2

[14] = system: Pseudomonas aeruginosa Stone 130; assay: In vitro MIC, Broth Dilution Method; format: cell-based
Description: as §2

[15] = system: Staphylococcus aureus ATCC 29213; assay: In vitro MIC, Broth Dilution Method; format: cell-based; conditions: ATCC29213; Broth Dilution Method; Staphylococcus aureus ATCC 29213; read-out: In Vitro MIC
Description: as §2

Streptococcus 82 = assay: In vitro MIC, Agar Well Diffusion Method; format: cell-based, Streptococcus aureus; conditions: Agar Well Diffusion Method; Streptococcus aureus 82; read-out: In Vitro MIC
Description: as §1

[16] = stability of the product (remark in the preparation); format: physicochemical; conditions: remark on the isolated product
[17] = Broth Dilution Method, Proteus mirabilis 2, read-out: In Vitro MIC
[18] = Broth Dilution Method, Escherichia coli 4, read-out: In Vitro MIC
[19] = Broth Dilution Method, Proteus mirabilis 90, read-out: In Vitro MIC
[20] = Broth Dilution Method, Enterobacter cloacae 5699, read-out: In Vitro MIC
[21] = STONE130, Broth Dilution Method, Pseudomonas aeruginosa Stone 130, read-out: In Vitro MIC
[22] = Broth Dilution Method, Streptococcus pneumoniae 6301, read-out: In Vitro MIC

SMILES | MIC (Serratia marcescens SM [1]) [mg/L] | MIC [2] [mg/L] | MIC [3] [mg/L] | MIC (Proteus vulgaris 101N) [mg/L] | MIC (Pseudomonas aeruginosa B) [mg/L] | MIC [4] [mg/L] | MIC (Escherichia coli 1269B) [mg/L] | MIC [5] [mg/L] | MIC (Micrococcus luteus PCl) [mg/L] | MIC [6] [mg/L] | MIC (Serratia marcescens SM [8]) [mg/L] | MIC [9] [mg/L] | MIC (Enterobacter cloacae P99) [mg/L] | MIC [10] [mg/L] | MIC (Klebsiella pneumoniae A) [mg/L] | MIC [11] [mg/L] | MIC [13] [mg/L] | MIC (Escherichia coli TEM-1) [mg/L] | MIC [15] [mg/L] | MIC (Streptococcus 82) [mg/L] | other results
CCn1cc(C(=O)OC)c(=O)c2cc(F)c(N3CCN(C=N[C@@H]4C(=O)N5[C@@H]4SC(C)(C)[C@@H]5C(=O)O)CC3)cc21 [Compound A] | 250 (≈ 447 µM) | 62.5 (≈ 112 µM) | 250 (≈ 447 µM) | 62.5 (≈ 112 µM) | 250 (≈ 447 µM) | 500 (≈ 893 µM) | 62.5 (≈ 112 µM) | 125 (≈ 223 µM) | 31.3 (≈ 55.9 µM) | 32 (≈ 57.2 µM) | 16 (≈ 28.6 µM) | 4 (≈ 7.15 µM) | 8 (≈ 14.3 µM) | 2 (≈ 3.57 µM) | 16 (≈ 28.6 µM) | 32 (≈ 57.2 µM) | > 128 | 4 (≈ 7.15 µM) | 16 (≈ 28.6 µM) | 7.8 (≈ 13.9 µM) | MIC (Proteus mirabilis 2; [17]): 8 mg/L (≈ 14.3 µM); MIC ([7]; Streptococcus pneumoniae, 6301, read-out: In Vitro MIC): 1 mg/L (≈ 1.79 µM); MIC (Escherichia coli 4; [18]): 8 mg/L (≈ 14.3 µM); MIC (Proteus mirabilis 90; [19]): 32 mg/L (≈ 57.2 µM); MIC [12, 20]: 8 mg/L (≈ 14.3 µM); MIC [14, 21]: 64 mg/L (≈ 114 µM)
CCn1cc(C(=O)O)c(=O)c2cc(F)c(N3CCCN(C=N[C@@H]4C(=O)N5[C@@H]4SC(C)(C)[C@@H]5C(=O)O)CC3)cc21 [Compound G, [2S-(2α,5α,6β)]-7-[4-[[)2-Carboxy-3,3-dimethyl-7-oxo-4-thia-1-azabicyclo[3.2.0]hept-6-yl)-imino]methyl]hexahydro-1H-1,4-diazepin-1-yl]-1-ethyl-6-fluoro-1,4-dihydro-4-oxo-3-quinolinecarboxylic acid disodium salt] | 50 | 100 | > 400 | 50 | 50 | 100 | 50 | 100 | 25 | 64 | 2 | 1 | 2 | 2 | 2 | 8 | 16 | 1 | 16 | 50 | MIC (Proteus mirabilis 2; Proteus mirabilis, 2, read-out: In Vitro MIC): 4 mg/L; MIC [7, 22]: 2 mg/L; MIC (Escherichia coli 4; [18]): 2 mg/L; MIC (Proteus mirabilis 90; [19]): 8 mg/L; MIC [12, 20]: 2 mg/L; MIC [14, 21]: 8 mg/L
CCn1cc(C(=O)O)c(=O)c2cc(F)c(N3CCN(C=N[C@@H]4C(=O)N5[C@@H]4SC(C)(C)[C@@H]5C(=O)O)CC3)nc21 [Compound H, disodium salt] | 31.3 | 31.3 | 125 | 7.8 | 15.6 | 15.6 | 7.8 | 7.8 | 31.3 | 8 | 0.5 | 0.125 | 0.125 | 0.5 | 0.25 | 0.5 | 8 | 0.125 | 0.5 | 7.8 | stability [16]: very unstable; MIC (Proteus mirabilis 2; [17]): 0.5 mg/L; MIC [7, 22]: 2 mg/L; MIC (Escherichia coli 4; Escherichia coli, 4, read-out: In Vitro MIC): 0.125 mg/L; MIC (Proteus mirabilis 90; Proteus mirabilis, 90, read-out: In Vitro MIC): 1 mg/L; MIC ([12]; Enterobacter cloacae, 5699, read-out: In Vitro MIC): 0.125 mg/L; MIC ([14]; Pseudomonas aeruginosa, STONE130, read-out: In Vitro MIC): 1 mg/L
